Test [1] is described as follows: cAMP pathway inhibition in counterscreen cell line – TR-FRET cAMP detection, counter-screen for MC4R biased antagonist project, dose response (AID 602305).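 Also: U2OS cells stimulated with forskolin near its EC80 as the cAMP inducer; potency is for inhibition of forskolin-stimulated cAMP signaling.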 It is filed as functional, cell-based. (In general: The purpose of a counterscreen is to sort out artefacts and off-target activity.)
A short description of test [2]: A Cell Based Secondary Assay To Explore Cytotoxicity of Compounds that Sensitize Mycobacterium Tuberculosis to Beta-Lactam Antibiotics. It is filed as functional.
In the next test the target is Melanocortin receptor 4 (Homo sapiens, UniProt P32245). As to the kind of experiment: inhibitors of MC4R cAMP signaling – cell-based, TR-FRET, biased antagonists, dose response (AID 602298).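 Also: antagonist potency against agonist-stimulated cAMP production.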 It is filed as functional. Background: Time-resolved FRET reads energy transfer from a long-lived donor to a nearby acceptor.
The target of test [3] is T1, High affinity choline transporter 1 (Homo sapiens, UniProt Q9GZV3).
T1 sequence (Q9GZV3 whole entry): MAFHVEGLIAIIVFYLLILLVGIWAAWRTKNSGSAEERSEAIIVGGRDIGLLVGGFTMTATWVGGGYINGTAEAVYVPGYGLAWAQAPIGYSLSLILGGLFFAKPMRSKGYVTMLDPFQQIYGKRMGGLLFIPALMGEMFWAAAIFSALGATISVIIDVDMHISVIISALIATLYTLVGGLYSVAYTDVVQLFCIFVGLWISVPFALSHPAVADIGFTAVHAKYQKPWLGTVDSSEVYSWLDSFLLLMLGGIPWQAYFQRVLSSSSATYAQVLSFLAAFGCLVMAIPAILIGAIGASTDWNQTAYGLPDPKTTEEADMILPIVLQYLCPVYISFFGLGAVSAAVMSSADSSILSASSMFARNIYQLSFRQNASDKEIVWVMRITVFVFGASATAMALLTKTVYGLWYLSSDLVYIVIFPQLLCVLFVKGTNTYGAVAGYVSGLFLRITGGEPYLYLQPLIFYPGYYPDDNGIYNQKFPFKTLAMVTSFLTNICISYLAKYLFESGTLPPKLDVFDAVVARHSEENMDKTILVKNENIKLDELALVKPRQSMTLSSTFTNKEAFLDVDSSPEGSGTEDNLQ
Nature of the test: human choline transporter blockers, potency – cell-based, 5-point CRC, membrane potential dye, dose response (AID 504840). Type of test: functional.

Test [4] deals with T1, High affinity choline transporter 1. As to the kind of experiment: human choline transporter blockers, potency – cell-based, 10-point CRC, membrane potential dye, dose response (AID 588401).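 Also: membrane potential dye fluorescence of choline-evoked depolarization via CHT.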 It is filed as functional.
The target in test [5] is T2, Nuclear receptor subfamily 0 group B member 1 (Homo sapiens, UniProt P51843).
T2 sequence (P51843 whole entry): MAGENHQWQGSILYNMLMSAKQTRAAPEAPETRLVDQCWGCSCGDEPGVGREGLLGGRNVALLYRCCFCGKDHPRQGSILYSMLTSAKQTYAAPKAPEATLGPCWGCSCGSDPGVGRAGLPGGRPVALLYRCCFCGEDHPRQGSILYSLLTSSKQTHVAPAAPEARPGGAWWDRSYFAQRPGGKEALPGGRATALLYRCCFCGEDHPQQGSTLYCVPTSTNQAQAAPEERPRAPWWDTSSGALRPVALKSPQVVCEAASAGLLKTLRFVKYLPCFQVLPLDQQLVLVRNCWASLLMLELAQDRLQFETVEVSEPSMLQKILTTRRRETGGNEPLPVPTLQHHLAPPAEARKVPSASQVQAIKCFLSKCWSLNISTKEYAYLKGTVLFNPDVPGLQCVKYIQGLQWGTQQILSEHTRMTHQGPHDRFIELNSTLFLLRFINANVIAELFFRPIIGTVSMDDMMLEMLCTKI
Nature of the test: Luminescence-based cell-based high throughput dose response assay for inhibitors of the orphan nuclear receptor subfamily 0, group B, member 1 (DAX1; NR0B1). [Related pubchem assays (depositor defined):AID504766, AID504790]. It is filed as functional.

Test [6] can be described thus: viability of uninfected HEp-2 cells – cell-based, HTS, cytotoxicity control for RSV inhibitor project, dose response (AID 2410). It is filed as functional. As to conditions: human respiratory syncytial virus.
For a further test, the system named is HEK293. Nature of the test: cells. It is filed as functional, cell-based. As to conditions: Homo sapiens.
The target of test [7] is T3, Microphthalmia-associated transcription factor (Homo sapiens, UniProt O75030).
T3 sequence (O75030 whole entry): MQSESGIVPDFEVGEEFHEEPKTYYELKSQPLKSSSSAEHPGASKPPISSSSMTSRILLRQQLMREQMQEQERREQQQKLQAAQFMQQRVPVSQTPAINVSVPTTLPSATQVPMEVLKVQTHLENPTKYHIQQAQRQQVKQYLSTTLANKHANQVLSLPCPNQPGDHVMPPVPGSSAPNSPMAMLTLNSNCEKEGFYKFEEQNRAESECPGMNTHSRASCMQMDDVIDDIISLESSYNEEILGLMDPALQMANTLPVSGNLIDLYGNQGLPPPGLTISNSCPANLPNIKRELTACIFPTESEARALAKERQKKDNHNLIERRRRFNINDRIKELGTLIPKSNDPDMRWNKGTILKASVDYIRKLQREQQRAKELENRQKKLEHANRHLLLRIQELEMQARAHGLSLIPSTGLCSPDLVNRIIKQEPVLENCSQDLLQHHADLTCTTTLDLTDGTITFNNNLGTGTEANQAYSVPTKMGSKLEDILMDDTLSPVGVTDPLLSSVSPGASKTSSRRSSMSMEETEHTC
Nature of the test: reducers of TRPM1 reporter luminescence, concentration series – cell-based, SK-MEL-5, cherry-picked, set 3, MITF inhibitor project, dose response (AID 493073).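 Also: SK-MEL-5 melanoma cells with luciferase driven by the MITF target TRPM1 promoter.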 It is filed as functional.

Another test addresses T4, Caspase-3 (Homo sapiens, UniProt P42574).
T4 sequence (P42574 whole entry): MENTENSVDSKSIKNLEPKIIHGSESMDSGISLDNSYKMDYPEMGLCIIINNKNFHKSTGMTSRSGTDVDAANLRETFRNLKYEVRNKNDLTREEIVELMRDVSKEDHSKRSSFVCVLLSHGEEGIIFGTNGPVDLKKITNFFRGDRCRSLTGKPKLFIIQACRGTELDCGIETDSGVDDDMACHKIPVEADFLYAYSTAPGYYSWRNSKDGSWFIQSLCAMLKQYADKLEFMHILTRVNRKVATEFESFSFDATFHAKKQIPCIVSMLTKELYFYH
Nature of the test: SAR Analysis of small molecule inhibitors of Sentrin-specific proteases (SENPs) using a Caspase-3 Selectivity assay. [Related pubchem assays (depositor defined):AID2540, AID2599, AID434973, AID489001]. Type of test: functional.

Test [8] has as its target T5, Sentrin-specific protease 6 (Homo sapiens, UniProt Q9GZR1).
T5 sequence (Q9GZR1 whole entry): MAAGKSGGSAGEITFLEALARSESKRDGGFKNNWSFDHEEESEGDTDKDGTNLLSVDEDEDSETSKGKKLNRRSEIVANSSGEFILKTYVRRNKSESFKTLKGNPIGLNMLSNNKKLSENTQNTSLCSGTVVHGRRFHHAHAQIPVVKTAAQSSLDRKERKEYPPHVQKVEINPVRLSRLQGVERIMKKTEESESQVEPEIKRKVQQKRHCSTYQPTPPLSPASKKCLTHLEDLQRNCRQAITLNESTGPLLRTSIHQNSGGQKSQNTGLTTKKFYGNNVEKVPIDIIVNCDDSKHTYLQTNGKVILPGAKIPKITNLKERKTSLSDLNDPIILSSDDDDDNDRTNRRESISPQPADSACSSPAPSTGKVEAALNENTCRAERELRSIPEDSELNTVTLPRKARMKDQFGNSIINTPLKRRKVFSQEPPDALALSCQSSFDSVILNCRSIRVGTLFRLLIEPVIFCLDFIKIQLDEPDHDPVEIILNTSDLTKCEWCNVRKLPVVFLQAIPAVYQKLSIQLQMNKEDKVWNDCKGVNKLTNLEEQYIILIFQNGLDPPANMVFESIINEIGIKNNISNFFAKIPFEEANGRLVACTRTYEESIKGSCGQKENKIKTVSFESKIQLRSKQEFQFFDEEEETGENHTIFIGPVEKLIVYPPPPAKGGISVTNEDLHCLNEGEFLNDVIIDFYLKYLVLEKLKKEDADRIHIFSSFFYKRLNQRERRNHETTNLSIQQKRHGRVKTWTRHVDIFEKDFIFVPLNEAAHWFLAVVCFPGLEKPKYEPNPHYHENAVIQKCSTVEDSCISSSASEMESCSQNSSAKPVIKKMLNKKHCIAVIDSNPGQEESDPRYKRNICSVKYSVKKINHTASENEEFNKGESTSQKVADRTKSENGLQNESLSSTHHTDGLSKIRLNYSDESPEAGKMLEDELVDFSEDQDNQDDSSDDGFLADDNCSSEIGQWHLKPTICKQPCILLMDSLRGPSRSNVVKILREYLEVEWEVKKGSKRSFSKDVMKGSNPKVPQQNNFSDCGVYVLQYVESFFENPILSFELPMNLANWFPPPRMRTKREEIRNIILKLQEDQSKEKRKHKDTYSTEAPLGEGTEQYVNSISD
Nature of the test: SAR Analysis of small molecule inhibitors of Sentrin-specific protease 6 (SENP6) using a Luminescent assay. [Related pubchem assays (depositor defined):AID2582, AID2599]. It is filed as functional.

For test [9], the target named is T6, Sentrin-specific protease 7 (Homo sapiens, UniProt Q9BQF6).
T6 sequence (Q9BQF6 whole entry): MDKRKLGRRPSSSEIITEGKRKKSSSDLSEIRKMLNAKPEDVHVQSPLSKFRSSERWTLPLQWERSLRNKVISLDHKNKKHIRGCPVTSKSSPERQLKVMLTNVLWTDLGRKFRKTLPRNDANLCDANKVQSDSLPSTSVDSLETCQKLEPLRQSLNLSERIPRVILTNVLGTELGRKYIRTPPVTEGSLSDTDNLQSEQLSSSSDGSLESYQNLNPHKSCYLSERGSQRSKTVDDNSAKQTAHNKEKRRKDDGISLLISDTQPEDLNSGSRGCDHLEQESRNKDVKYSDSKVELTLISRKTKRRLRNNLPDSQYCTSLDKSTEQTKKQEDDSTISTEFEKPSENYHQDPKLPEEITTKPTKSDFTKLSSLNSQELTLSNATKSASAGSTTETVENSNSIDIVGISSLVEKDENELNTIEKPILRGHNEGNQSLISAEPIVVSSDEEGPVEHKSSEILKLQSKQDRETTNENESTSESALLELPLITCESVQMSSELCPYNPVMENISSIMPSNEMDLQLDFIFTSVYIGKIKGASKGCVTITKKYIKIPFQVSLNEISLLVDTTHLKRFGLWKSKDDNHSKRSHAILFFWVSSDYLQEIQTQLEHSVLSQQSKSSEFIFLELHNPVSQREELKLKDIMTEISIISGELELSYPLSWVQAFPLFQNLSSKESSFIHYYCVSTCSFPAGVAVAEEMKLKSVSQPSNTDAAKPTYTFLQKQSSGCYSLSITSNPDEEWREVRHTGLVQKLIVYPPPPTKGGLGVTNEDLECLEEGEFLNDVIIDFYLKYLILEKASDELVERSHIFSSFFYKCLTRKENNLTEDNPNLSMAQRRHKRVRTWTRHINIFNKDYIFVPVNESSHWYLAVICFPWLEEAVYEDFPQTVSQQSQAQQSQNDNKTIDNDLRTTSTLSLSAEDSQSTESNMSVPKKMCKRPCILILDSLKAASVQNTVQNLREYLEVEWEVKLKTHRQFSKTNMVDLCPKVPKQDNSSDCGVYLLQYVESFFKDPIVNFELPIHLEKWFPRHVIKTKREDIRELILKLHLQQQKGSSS
Nature of the test: inhibition of human SENP7 cleavage activity – biochemical, luminescence, SAR follow-up (AID 504497). It is filed as functional.

Test [10] has as its target T7, Sentrin-specific protease 8 (Homo sapiens, UniProt Q96LD8).
T7 sequence (Q96LD8 whole entry): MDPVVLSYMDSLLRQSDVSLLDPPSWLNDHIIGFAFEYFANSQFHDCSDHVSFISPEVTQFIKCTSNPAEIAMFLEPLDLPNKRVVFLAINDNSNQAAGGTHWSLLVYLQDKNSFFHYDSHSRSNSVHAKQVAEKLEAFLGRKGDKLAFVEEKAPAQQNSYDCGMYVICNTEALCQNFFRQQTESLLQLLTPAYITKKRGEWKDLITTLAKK
Nature of the test: inhibition of human SENP8 cleavage activity – biochemical, luminescence, SAR follow-up (AID 504501). It is filed as functional.

The source made the active and inactive calls.

Sequence of Melanocortin receptor 4 (P32245 whole entry): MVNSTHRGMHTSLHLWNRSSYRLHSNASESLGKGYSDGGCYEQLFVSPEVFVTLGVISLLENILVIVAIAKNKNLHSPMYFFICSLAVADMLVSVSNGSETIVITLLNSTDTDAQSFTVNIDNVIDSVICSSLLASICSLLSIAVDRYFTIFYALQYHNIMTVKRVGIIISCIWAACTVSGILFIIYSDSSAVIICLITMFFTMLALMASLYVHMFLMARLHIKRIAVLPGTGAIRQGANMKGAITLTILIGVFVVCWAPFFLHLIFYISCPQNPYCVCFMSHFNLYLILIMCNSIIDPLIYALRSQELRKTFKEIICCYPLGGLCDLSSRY

In general, IC50 refers to the concentration that gives 50% inhibition. Usually CC50 stands for the concentration giving 50% cytotoxicity. `Cc1ccc2nc(-c3ccc(NC(=S)NC(=O)C(C)C)cc3)sc2c1`: the IC50 (in [1]; on Melanocortin receptor 4) was > 64.6 µM (inactive) throughout. Further, the CC50 in test [2] is > 40 µM (active).
Regarding `C#CCNc1c(C)c(C)nc2ncnn12`, the IC50 in [3] was 9.35 µM (active); in [4], 4.47 µM (active).
Regarding `CCCn1c2ccccc2c2cnn(CC(=O)NCCN(CC)CC)c(=O)c21`, the IC50 in test [3] was 5.7 µM (active); in test [4], 3.36 µM (active).
With `CC1CCCN(c2nc(-c3cccnc3)nc3scc(-c4ccccc4)c23)C1` (centres undefined), the IC50 (in [1]; on Melanocortin receptor 4) was > 64.6 µM (inactive) throughout.
Turning to `COc1ccc(-c2nc3ncccn3c2Br)cc1`, the IC50 (in [5]; in the test with HEK293) was > 67.6 µM (inactive) each time. In addition, in test [6], the CC50 is 39.3 µM (active).
What is called AC50 is the concentration at which the activity in the assay is half-maximal. With `Cc1cc(C(=O)CCl)c(C)n1CCc1ccc(F)cc1`, the IC50 (in test [1]; on Melanocortin receptor 4) was > 64.5 µM (inactive) in each case. Moreover, the AC50 in test [7] is 4.25 µM (active).
Regarding `COC(=O)c1ccc(C2c3[nH]c4ccccc4c3C[C@H]3C(=O)N(C4CCN(Cc5ccccc5)CC4)CC(=O)N23)cc1` (some centres undefined), the IC50 (in [1]; on Melanocortin receptor 4) was > 64.6 µM (inactive) throughout.
For `Cc1cc(Cl)ccc1NC(=O)c1ccc2c(c1)OCO2`, the IC50 at Caspase-3 was 28.1 µM (active); in [8], > 99 µM (inactive); in test [9], 34.6 µM (active); in [10], > 99 µM (inactive).
On to `O=[N+]([O-])c1cc(NS(=O)(=O)c2ccc(Cl)nc2)ccc1Cl`, for which the IC50 in test [3] is 2.4 µM (active); in test [4], 3.35 µM (active).
As to `Oc1nnc(/C=C/c2ccc(F)cc2)o1`, the IC50 (at Caspase-3; in test [8]; in test [9]; in test [10]) was > 99 µM (inactive) throughout.
For the compound `O=[N+]([O-])c1cc(Br)cc(/C=N/c2ccc3c(c2)OCO3)c1O`, the figures for the IC50 in test [3] and in [4] were 9.12 µM (active) and 10 µM (active), respectively.

The values are drawn from ChEMBL document CHEMBL1201862, “PubChem BioAssay data set” (2004).
